Laboratory results as given in patent US20240197867A1, “NEURAL CONTROL OF ADAPTIVE IMMUNITY” (The Feinstein Institutes for Medical Research, priority 2021, published 2024).

Target: T1, Gi-DREADD (hM4Di) on TRPV1+ neurons (Homo sapiens, UniProt P08173, A203G/Y113C)
T1 construct: expressed in transfected cells; host or cells: TRPV1+ neurons of TRPV1Cre/Gi-DREADD transgenic mice (TRPV1Cre x R26-LSL-Gi-DREADD), in vivo
T1 sequence (P08173 1-479 Y113C/A203G): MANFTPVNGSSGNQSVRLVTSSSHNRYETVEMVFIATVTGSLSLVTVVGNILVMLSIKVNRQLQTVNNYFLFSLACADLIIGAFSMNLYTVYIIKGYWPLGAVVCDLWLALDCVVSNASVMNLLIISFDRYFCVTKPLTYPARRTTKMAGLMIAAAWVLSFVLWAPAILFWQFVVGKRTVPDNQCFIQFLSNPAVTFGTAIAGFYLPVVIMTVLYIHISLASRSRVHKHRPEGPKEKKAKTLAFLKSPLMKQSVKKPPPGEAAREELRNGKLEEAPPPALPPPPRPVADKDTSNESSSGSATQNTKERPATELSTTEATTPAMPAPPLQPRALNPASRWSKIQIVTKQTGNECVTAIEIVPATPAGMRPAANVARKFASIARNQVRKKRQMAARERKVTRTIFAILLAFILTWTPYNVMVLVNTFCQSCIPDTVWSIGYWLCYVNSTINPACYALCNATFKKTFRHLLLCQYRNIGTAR
Assay: Chemogenetic silencing of TRPV1+ neurons before intratracheal NP27-OVA immunization; NP-specific antibody titer by ELISA
Type: in vivo
Conditions: TRPV1-Gi-DREADD mice; CNO intraperitoneally 30 minutes prior to intratracheal immunization with NP27-OVA; D14 post-immunization; n=11; p=0.0017 vs vehicle
Experimental: FIG. 1. Silencing of sensory nerves at the time of primary immunization impacts antigen specific antibody responses. TRPV1^Cre/Gi-DREADD mice were administered with vehicle (DMSO) or CNO 30 min prior to immunization. Titer of NP-specific antibodies were monitored using ELISA.
Using an intra-tracheal instillation technique, specific antigens were delivered in the lung. Tracheal instillations are preferred methodology, over inhalation protocols that may primarily target the upper respiratory tract. This allows for making subsequent physiological measurements on test animals, or reinstallation using the same animal. Also, the dose of the inoculum introduced into the lungs can be carefully determined and more accurately delivered to ensure animal recovery. […] TRPV1+ neurons were selectively silenced at the time of immunization using a chemogenetic mouse model. The Gi-DREADD, also known as human muscarinic receptor 4 (hM4Di), is a mutated muscarinic acetylcholine receptor that, when activated by its ligand, CNO, initiates the inhibitory G-protein signaling cascade that inhibits neuronal signaling and/or excitability. TRPV1Cre/Gi-DREADD mice that express Gi-DREADD on TRPV1+ neurons were generated by crossing TRPV1Cre mice with R26-LSLGi-DREADD mice controls. […] Antibody levels were assessed over time. […]

For `C[N+]1([O-])CCN(C2=Nc3cc(Cl)ccc3Nc3ccccc32)CC1` [CNO, clozapine-N-oxide], the “Anti-NP IgG1, Mean±SEM” value was 42,525+14,641 U/mL.
